Experiment [1] deals with T1, PRC2 containing wt EZH2 (Homo sapiens (Human), UniProt Q15910). Briefly: EZH2 biochemical assay (IC50), 3H-SAM incorporation into biotinylated H3 peptide. To be noted: 30 pM PRC2 with wt EZH2, 3-5 h pre-incubation. On the procedure:
EZH2 biochemical assay (IC50): Compound potencies were assessed through incorporation of ^3H-SAM into a biotinylated H3 peptide. Specifically, 30 pM PRC2 containing wt EZH2 (pentameric complex prepared in-house) was pre-incubated with 450 nM SAM, 450 nM ^3H-SAM, 2 μM H3K27me3 activating peptide (H2N-RKQLATKAAR(Kme3)SAPATGGVKKP-amide) and compounds (as 10 point duplicate dose response titrations in DMSO, final assay 0.8% DMSO (v/v)) for 3-5 h in 50 mM Tris (pH 8.5), 1 mM DTT, 0.07 mM Brij-35, 0.1% BSA, and 0.8% DMSO in a total volume of 12.5 μl. Reaction was initiated with biotinylated H3 substrate peptide (H2N-RKQLATKAAR(Kmel)SAPATGGVKKP-NTPEGBiot) as a 2 μM stock in 12.5 μl of buffer and allowed to react at room temperature for 18-22 h. Quenching was accomplished by addition of 20 μl of STOP solution (50 mM Tris (pH 8.5), 200 mM EDTA, 2 mM SAH). 35 μl of the quenched solution was transferred to streptavidin coated FlashPlates (PerkinElmer), incubated 1-2 h, washed, and read in a TopCount Reader (PerkinElmer). IC50s were calculated in Genedata Screener using non-linear least square four parameter fits, where the four parameters were IC50, Hill slope, pre-transitional baseline (0% INH), and post-transitional baseline (100% INH).

A further experiment concerns Karpas-422 cell lines. Nature of the experiment: Karpas-422 viability assay (Cell Titer-Glo, Day 8). Type of experiment: cell-based. To be noted: Homo sapiens, KARPAS-422, 192 h, Cell Titer-Glo on Day 8. How it is done: Karpas-422 cell lines were obtained from DSMZ (Braunschweig, Germany) and were grown in RPMI-1640 media. All media contained 10% fetal bovine serum (FBS) and 1% penicillin/streptomycin (Invitrogen). 20K cells per well were plated onto 96 well compound coated plates. Cells were split and seeded at original plating density (based on the DMSO well counts) every 4 days into plates containing fresh EZH2 inhibitors. Relative cell numbers were assessed by Cell Titer-Glo luminescent cell viability assay (Promega) on Day 8. GraphPad Prism 5 was used for curve fitting and GI50 values were reported.
For orientation: Cellular ATP, detected with luciferase, serves as a proxy for viable cell number.

Experiment [2] deals with T1, PRC2 containing wt EZH2. Nature of the experiment: EZH2 residence time assay (100-fold dilution of enzyme-inhibitor complex). In kind it is biochemical. On the procedure: EZH2 residence time assay: Compound residence times were assessed by monitoring the recovery of enzyme activity following a 100-fold dilution of pre-formed enzyme-inhibitor complex (dilution reaction), and comparing it to the activity of an undiluted control with the same final concentrations of all reagents (control reaction). Enzyme activity was measured by incorporation of ^3H-SAM into a biotinylated H3 peptide. For the dilution reaction, 20 nM PRC2 containing wt EZH2 (pentameric complex prepared in-house) was pre-incubated with 1 μM activating peptide (H2N-RKQLATKAAR(Kme3)SAPATGGVKKP-amide) and compound at 600 times its Ki for 2 h in 40 μL of buffer (50 mM Tris pH 8.5, 4 mM DTT, 1 mM MgCl2, 0.07 mM Brij-35, and 0.1 mg/mL BSA), then diluted 100-fold and the reaction initiated by transferring 1.4 μL to a 138.6 μL volume of buffer containing 1 μM activating peptide, 5.05 μM substrate peptide (H2N-[…]-NTPEGbiot), 1.01 μM SAM, and 1.01 μM ^3H-SAM. […] Reactions were quenched at various time points spanning up to 10 hours, by transferring 8μL aliquots from the reaction vessel to a plate containing 8μL per well of STOP solution (50 mM Tris pH 8.5, 200 mM EDTA, 2 mM SAH). After the last time point, 12 μL of the quenched solutions were transferred to a streptavidin coated FlashPlate (PerkinElmer) containing 40 μL per well of STOP solution, incubated 1-8 h, washed, and read in a TopCount plate reader (PerkinElmer).
A custom script was used to fit control reaction progress data to a straight line and dilution reaction progress data:
[formula] Where y is the product formed, t is the reaction time, vi is the initial velocity, vs is the steady state velocity, and kobs is the rate constant for the transition from the initial velocity phase of the curve to the steady state velocity phase of the curve. In fitting the dilution reaction progress data, vs was constrained to the slope of the line fitted to the control reaction progress data. The fitted value of kobs was then transformed into residence time:
[formula] Where τ is residence time, Ki is the inhibition constant, [EI] is the calculated equilibrium concentration of enzyme-inhibitor complex, [E] is the calculated equilibrium concentration of free enzyme, and [I] is the calculated equilibrium concentration of free inhibitor.

[3] abbreviates: recovery of enzyme activity after 100-fold dilution, read-out: EZH2 residence time (converted).

A word on the IC50: it is the concentration that gives 50% inhibition. A lower IC50 goes with greater potency in that assay. A word on the GI50: it is the concentration that inhibits growth by half. A higher GI50 goes with lower sensitivity of the cells.

Read-outs that look alike come from different tables or passages of the source. Some results are limits rather than exact numbers.

T1 sequence (Q15910 whole entry): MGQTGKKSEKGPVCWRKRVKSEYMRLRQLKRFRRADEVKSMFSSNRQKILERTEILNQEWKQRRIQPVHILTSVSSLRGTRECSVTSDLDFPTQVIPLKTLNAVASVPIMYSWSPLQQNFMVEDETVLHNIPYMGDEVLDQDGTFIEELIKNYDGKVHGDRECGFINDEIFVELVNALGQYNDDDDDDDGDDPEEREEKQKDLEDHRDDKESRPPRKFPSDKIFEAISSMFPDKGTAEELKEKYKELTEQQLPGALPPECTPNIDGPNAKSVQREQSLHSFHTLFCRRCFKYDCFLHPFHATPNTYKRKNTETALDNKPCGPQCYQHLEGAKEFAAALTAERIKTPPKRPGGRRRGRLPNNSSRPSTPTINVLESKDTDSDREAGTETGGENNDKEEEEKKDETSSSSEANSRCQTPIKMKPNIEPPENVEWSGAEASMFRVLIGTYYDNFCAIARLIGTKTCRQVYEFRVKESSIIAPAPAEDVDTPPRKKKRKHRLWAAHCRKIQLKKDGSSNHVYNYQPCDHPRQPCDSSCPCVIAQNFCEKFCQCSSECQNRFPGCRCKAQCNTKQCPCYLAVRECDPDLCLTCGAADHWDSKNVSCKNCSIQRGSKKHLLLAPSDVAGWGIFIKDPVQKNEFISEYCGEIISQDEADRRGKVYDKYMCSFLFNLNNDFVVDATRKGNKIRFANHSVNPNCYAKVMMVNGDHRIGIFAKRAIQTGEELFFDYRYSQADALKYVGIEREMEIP
T1 sequence (O75530 whole entry partner): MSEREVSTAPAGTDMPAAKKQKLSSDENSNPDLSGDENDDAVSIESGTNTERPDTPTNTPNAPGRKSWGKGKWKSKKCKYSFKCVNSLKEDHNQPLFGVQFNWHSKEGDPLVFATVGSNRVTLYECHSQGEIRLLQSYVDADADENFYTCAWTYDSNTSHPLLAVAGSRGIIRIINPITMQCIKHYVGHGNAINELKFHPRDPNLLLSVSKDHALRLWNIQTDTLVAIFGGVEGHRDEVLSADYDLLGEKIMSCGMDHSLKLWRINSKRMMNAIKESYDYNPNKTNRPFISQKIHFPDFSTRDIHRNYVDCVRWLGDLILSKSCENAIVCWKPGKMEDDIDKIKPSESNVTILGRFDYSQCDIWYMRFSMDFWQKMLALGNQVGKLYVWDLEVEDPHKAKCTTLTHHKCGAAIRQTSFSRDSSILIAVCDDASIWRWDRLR
T1 sequence (Q15022 whole entry partner): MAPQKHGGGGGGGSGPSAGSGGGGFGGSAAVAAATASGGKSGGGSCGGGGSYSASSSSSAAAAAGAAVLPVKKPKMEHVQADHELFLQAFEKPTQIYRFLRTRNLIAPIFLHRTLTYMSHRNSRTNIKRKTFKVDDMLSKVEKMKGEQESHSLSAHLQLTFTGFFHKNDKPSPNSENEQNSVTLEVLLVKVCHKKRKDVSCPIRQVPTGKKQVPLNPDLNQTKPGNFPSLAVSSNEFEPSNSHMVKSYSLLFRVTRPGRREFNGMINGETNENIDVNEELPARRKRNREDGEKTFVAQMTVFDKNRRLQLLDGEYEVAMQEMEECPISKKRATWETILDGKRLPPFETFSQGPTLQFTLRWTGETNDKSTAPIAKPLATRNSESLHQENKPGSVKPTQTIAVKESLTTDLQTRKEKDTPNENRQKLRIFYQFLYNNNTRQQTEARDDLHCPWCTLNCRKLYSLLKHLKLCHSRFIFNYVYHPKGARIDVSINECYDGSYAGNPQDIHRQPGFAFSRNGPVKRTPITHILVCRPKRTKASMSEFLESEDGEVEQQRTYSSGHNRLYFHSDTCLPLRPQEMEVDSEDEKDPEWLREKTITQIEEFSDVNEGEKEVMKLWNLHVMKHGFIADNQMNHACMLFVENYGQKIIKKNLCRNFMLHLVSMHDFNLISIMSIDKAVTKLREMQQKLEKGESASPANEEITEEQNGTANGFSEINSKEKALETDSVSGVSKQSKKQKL
T1 sequence (Q09028 whole entry partner): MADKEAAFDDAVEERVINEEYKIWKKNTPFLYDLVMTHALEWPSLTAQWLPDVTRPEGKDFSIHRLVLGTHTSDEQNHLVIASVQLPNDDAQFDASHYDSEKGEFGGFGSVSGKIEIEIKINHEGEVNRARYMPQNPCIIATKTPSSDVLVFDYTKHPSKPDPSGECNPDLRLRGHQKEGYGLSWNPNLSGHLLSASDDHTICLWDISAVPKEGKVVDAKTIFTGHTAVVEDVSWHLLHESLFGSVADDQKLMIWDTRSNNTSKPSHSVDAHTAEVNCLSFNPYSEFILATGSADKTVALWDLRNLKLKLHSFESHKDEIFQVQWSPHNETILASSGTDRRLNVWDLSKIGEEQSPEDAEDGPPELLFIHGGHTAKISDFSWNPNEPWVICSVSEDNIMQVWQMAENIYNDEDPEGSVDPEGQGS
T1 sequence (Q6ZN18 whole entry partner): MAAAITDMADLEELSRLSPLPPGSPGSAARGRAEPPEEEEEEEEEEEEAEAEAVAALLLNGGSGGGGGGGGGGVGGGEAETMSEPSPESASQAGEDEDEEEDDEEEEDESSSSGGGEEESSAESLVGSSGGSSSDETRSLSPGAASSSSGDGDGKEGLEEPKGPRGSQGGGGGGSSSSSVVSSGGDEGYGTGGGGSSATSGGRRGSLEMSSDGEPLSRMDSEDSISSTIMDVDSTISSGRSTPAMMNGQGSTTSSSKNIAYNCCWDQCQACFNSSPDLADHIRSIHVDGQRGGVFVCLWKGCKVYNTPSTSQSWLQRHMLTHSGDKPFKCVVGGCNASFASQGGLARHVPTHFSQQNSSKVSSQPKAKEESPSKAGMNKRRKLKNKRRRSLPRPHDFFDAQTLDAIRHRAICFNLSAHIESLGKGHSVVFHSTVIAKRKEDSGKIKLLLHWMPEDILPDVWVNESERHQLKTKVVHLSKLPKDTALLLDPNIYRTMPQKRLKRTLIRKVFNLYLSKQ

Take `CSc1cc(C)[nH]c(=O)c1CNC(=O)c1cc(Cl)c2c(c1C)OC(C)(C1CCC(N3CC(OC(F)F)C3)CC1)O2` (single isomer, unassigned) [Example 1, 7-chloro-2-(4-(3-(difluoromethoxy)azetidin-1-yl)cyclohexyl)-2,4-dimethyl-N-((6-methyl-4-(methylthio)-2-oxo-1,2-dihydropyridin-3-yl)methyl)benzo[d][1,3]dioxole-5-carboxamide]: at PRC2 containing wt EZH2 [1], the IC50 came out at 0.091 nM. Halving of growth with Karpas-422 cell lines (GI50) required 3.9 nM. Further, the residence time at PRC2 containing wt EZH2 [2] (read-out: EZH2 residence time) was greater than 6000 min.
`CSc1cc(C)[nH]c(=O)c1CNC(=O)c1cc(Cl)c2c(c1C)OC(C)(C1CCC(N3CC(OC4CC4)C3)CC1)O2` (single isomer, unassigned) [Example 9] yielded an IC50 at PRC2 containing wt EZH2 [1] of 0.054 nM. It took 3.7 nM to inhibit growth in the experiment with Karpas-422 cell lines by half (GI50). The residence time at PRC2 containing wt EZH2 [2] (setting [3]) is greater than 6000 min.
With `COC1CN(C2CCC(C3(C)Oc4c(Cl)cc(C(=O)NCc5c(SC)cc(C)[nH]c5=O)c(C)c4O3)CC2)C1` (single isomer, unassigned) [Example 17, 7-chloro-2-(4-(3-methoxyazetidin-1-yl)cyclohexyl)-2,4-dimethyl-N-((6-methyl-4-(methylthio)-2-oxo-1,2-dihydropyridin-3-yl)methyl)benzo[d][1,3]dioxole-5-carboxamide], the IC50 against PRC2 containing wt EZH2 [1] turned out to be 0.043 nM. In the experiment with Karpas-422 cell lines, this compound registered a GI50 of 3.5 nM. Further, at PRC2 containing wt EZH2 [2] (setting [3]), the residence time is greater than 6000 min.
Take `Cc1cc(Cl)c(CNC(=O)c2cc(Cl)c3c(c2C)OC(C)(C2CCC(N4CC(OC5CC5)C4)CC2)O3)c(=O)[nH]1` (single isomer, unassigned) [Example 8, 7-chloro-N-((4-chloro-6-methyl-2-oxo-1,2-dihydropyridin-3-yl)methyl)-2-(4-(3-cyclopropoxyazetidin-1-yl)cyclohexyl)-2,4-dimethylbenzo[d][1,3]dioxole-5-carboxamide]: the 50% inhibitory concentration (IC50) at PRC2 containing wt EZH2 [1] is 0.039 nM. This compound came in with a GI50 in the experiment with Karpas-422 cell lines of 5 nM. In addition, the residence time at PRC2 containing wt EZH2 [2] (setting [3]) was greater than 6000 min.
For `CSc1nc(C)[nH]c(=O)c1CNC(=O)c1cc(Cl)c2c(c1C)OC(C)(C1CCC(N3CC(OC(F)F)C3)CC1)O2` (single isomer, unassigned) [Example 10], inhibition on PRC2 containing wt EZH2 [1] was half-maximal at 0.202 nM (IC50). Also, growth in the experiment with Karpas-422 cell lines was halved (GI50) at 20 nM. Also, the residence time on PRC2 containing wt EZH2 [2] (setting [3]) was 2220 min.
At PRC2 containing wt EZH2 [1], `CSc1cc(C)[nH]c(=O)c1CNC(=O)c1cc(Cl)c2c(c1C)OC(C)(C1CCC(N3CC(F)C3)CC1)O2` (single isomer, unassigned) [Example 12] yielded an IC50 of 0.092 nM. In the experiment on Karpas-422 cell lines, this compound gave a 50% growth inhibitory concentration (GI50) of 4.4 nM. For the same compound, the residence time on PRC2 containing wt EZH2 [2] (setting [3]) was greater than 6000 min.
On PRC2 containing wt EZH2 [1], `Cc1cc(Cl)c(CNC(=O)c2cc(Cl)c3c(c2C)OC(C)(C2CCC(N4CC(OC(F)F)C4)CC2)O3)c(=O)[nH]1` (single isomer, unassigned) [Example 13] registered an IC50 of 0.084 nM. The GI50 in the experiment on Karpas-422 cell lines amounted to 9.7 nM. Besides, the residence time on PRC2 containing wt EZH2 [2] (setting [3]) was 2880 min.
